ChEMBL document CHEMBL2157905, “Inhibition of therapeutically important polymerases with high affinity bis-intercalators” (Bioorg Med Chem Lett, 2012)
Starred links: 1 amine or outer side, 2 acyl side, 3 side chain; linkers in the order of their positions; H or OH if unused. Positions of bridges follow the written chain, without caps; N, C: chain ends. Non-standard residues stand in square brackets, D forms with d. Residues, ends and D or L forms follow the SMILES beside them. Chains are numbered I, II in the order given. Actinocin(9to1) = Cc1c2oc3c(C)ccc(C(=O)[*:1])c3nc-2c(C(=O)[*:2])c(N)c1=O; NMeV = CN[C@H](C(=O)O)C(C)C; Sar = CNCC(=O)O

Experiments:
[1] = target: T1, Human immunodeficiency virus type 1 reverse transcriptase (Human immunodeficiency virus 1, UniProt Q72547); assay: Inhibition of HIV-1 reverse transcriptase using 25 ug/mL of Poly(rA).p(dT) (12 to 18) as substrate after 30 mins by single point PCR assay
[2] = target: T1, Human immunodeficiency virus type 1 reverse transcriptase; assay: Inhibition of HIV-1 reverse transcriptase using 0.05 ug/mL of Poly(rA).p(dT) (12 to 18) as substrate after 30 mins by single point PCR assay
[3] = target: T1, Human immunodeficiency virus type 1 reverse transcriptase; assay: Inhibition of HIV-1 reverse transcriptase using 25 ug/mL of Poly(rA).p(dT) (12 to 18) as substrate after 30 mins by single point PCR assay in presence of 340 uM base pair of calf thymus DNA
[4] = target: T1, Human immunodeficiency virus type 1 reverse transcriptase; assay: Inhibition of HIV-1 reverse transcriptase using Poly(rA).p(dT) (12 to 18) as substrate after 30 mins by single point PCR assay
[5] = Inhibition of telomerase in human HeLa cell extract by fluorescence-based assay; type: cell-free
[6] = Inhibition of partially purified telomerase by fluorescence-based assay
[7] = target: T1, Human immunodeficiency virus type 1 reverse transcriptase; assay: Inhibition of HIV-1 reverse transcriptase using 0.5 ug/mL of Poly(rA).p(dT) (12 to 18) as substrate after 30 mins by single point PCR assay
[8] = Inhibition of telomerase

| SMILES | IC50 [2] [µM] | IC50 ([4]; read-out: IC50) [µM] | also measured |
| --- | --- | --- | --- |
| Nc1ccc2c(c1)c(-c1ccccc1)[n+](CCCNCCNCCC[n+]1c(-c3ccccc3)c3cc(N)ccc3c3ccc(N)cc31)c1cc(N)ccc21 | 0.0108 | – | IC50 [1]: 2.3 µM; IC50 [3]: 8.5 µM |
| Cc1c2oc3c(C)c(N)cc(C(=O)N[C@@H]4C(=O)N[C@H](C(C)C)C(=O)N5CCC[C@H]5C(=O)N(C)CC(=O)N(C)[C@@H](C(C)C)C(=O)O[C@@H]4C)c3nc-2c(C(=O)N[C@@H]2C(=O)N[C@H](C(C)C)C(=O)N3CCC[C@H]3C(=O)N(C)CC(=O)N(C)[C@@H](C(C)C)C(=O)O[C@@H]2C)c(N)c1=O | – | 93 | – |
| O=C(O)c1ccc2cc3ccccc3cc2c1 | – | – | IC50 [4]: Not Active |
| O=C(O)c1cccc2cc3ccccc3cc12 | – | – | IC50 [4]: Not Active |
| O=C(O)c1c2ccccc2nc2ccccc12 | – | – | IC50 [4]: Not Active |
| NC(=O)[C@H](CCCNC(=O)c1ccc(C[n+]2c(-c3ccccc3)c3cc(N)ccc3c3ccc(N)cc32)cc1)NC(=O)CCCCCNC(=O)[C@@H](N)CCCNC(=O)c1ccc(C[n+]2c(-c3ccccc3)c3cc(N)ccc3c3ccc(N)cc32)cc1 | 0.0049 | – | – |
| NC(=O)[C@H](CCCNC(=O)c1ccc(C[n+]2c(-c3ccccc3)c3cc(N)ccc3c3ccc(N)cc32)cc1)NC(=O)CCNC(=O)C(N)CNC(=O)c1ccc(C[n+]2c(-c3ccccc3)c3cc(N)ccc3c3ccc(N)cc32)cc1 (stereo not given in full) | 0.0092 | – | – |
| NC(=O)[C@H](CCCCNC(=O)c1ccc(C[n+]2c(-c3ccccc3)c3cc(N)ccc3c3ccc(N)cc32)cc1)NC(=O)CCCNC(=O)[C@@H](N)CCCCNC(=O)c1ccc(C[n+]2c(-c3ccccc3)c3cc(N)ccc3c3ccc(N)cc32)cc1 | 0.0105 | – | – |
| NC(=O)C(CNC(=O)c1ccc(C[n+]2c(-c3ccccc3)c3cc(N)ccc3c3ccc(N)cc32)cc1)NC(=O)[C@@H](N)CCCNC(=O)c1ccc(C[n+]2c(-c3ccccc3)c3cc(N)ccc3c3ccc(N)cc32)cc1 (stereo not given in full) | 0.0223 | – | – |
| NC(=O)C(CNC(=O)c1ccc(C[n+]2c(-c3ccccc3)c3cc(N)ccc3c3ccc(N)cc32)cc1)NC(=O)CCCCCNC(=O)[C@@H](N)CCCCNC(=O)c1ccc(C[n+]2c(-c3ccccc3)c3cc(N)ccc3c3ccc(N)cc32)cc1 (stereo not given in full) | 0.0307 | – | – |
| NCCCC[C@H](NC(=O)CCNC(=O)C(N)CN)C(N)=O (stereo not given in full) | – | – | IC50 [5]: 0.6 µM; IC50 [6]: 0.1 µM |
| CCOc1ccc2nc3cc(N)ccc3c(N)c2c1 | – | 20 | – |
| COc1ccc2nc3cc(Cl)ccc3c(N)c2c1 | – | – | IC50 [4]: Not Active |
| COc1ccc2nc3cc(Cl)ccc3c(NCCCNCCCCNCCCNc3c4ccc(Cl)cc4nc4ccc(OC)cc34)c2c1 [ACRIDINE DIMER] | 0.22 | – | IC50 [1]: 12.9 µM; IC50 [7]: 0.4 µM |
| CN(C)c1ccc2cc3ccc(N(C)C)cc3nc2c1 [ACRIDINE ORANGE] | – | 200 | – |
| Cc1cc2cc3cc(C)c(N)cc3nc2cc1N [ACRIDINE YELLOW] | – | 32 | – |
| Cc1c2oc3c(C)ccc(C(=O)N[C@@H]4C(=O)N[C@H](C(C)C)C(=O)N5CCC[C@H]5C(=O)N(C)CC(=O)N(C)[C@@H](C(C)C)C(=O)O[C@@H]4C)c3nc-2c(C(=O)N[C@@H]2C(=O)N[C@H](C(C)C)C(=O)N3CCC[C@H]3C(=O)N(C)CC(=O)N(C)[C@@H](C(C)C)C(=O)O[C@@H]2C)c(N)c1=O [DACTINOMYCIN] (I: T[dV]P[Sar][NMeV] / II: T[dV]P[Sar][NMeV]; ester I:1-I:C, II:1-II:C; linker I:N-II:N via Actinocin(9to1)) | – | 270 | – |
| COc1cccc2c1C(=O)c1c(O)c3c(c(O)c1C2=O)C[C@@](O)(C(C)=O)C[C@@H]3O[C@H]1C[C@H](N)[C@H](O)[C@H](C)O1 [DAUNORUBICIN] | – | 139 | – |
| Cc1c2ccncc2c(C)c2c1[nH]c1ccccc12 [ELLIPTECINE] | – | 182 | – |
| CC[n+]1c(-c2ccccc2)c2cc(N)ccc2c2ccc(N)cc21 [HOMIDIUM BROMIDE] | – | 2 | – |
| CC[n+]1c(-c2ccccc2)c2cc(N)ccc2c2ccc(N)cc21 [HOMIDIUM] | 2.1 | – | IC50 [1]: 2.2 µM; IC50 [8]: 3.3 µM; IC50 [7]: 1.8 µM |
| CC[N+](C)(CC)CCC[n+]1c(-c2ccccc2)c2cc(N)ccc2c2ccc(N)cc21 [PROPIDIUM] | – | 3 | – |
